US8961937B2 (Korea Atomic Energy Research Institute, priority 2012, dated 2015)
“Also recorded” adds a separate entry of the source.

What was measured:
Aβ40 aggregates [1] = biological target: T1, Aβ40 aggregates (Homo sapiens, UniProt P05067); test: In vitro fluorescence measurement before and after mixing with agglomerated Aβ40 peptide; type: binding; details: for λem: emission wavelength; for λem / λex: 10 μM in PBS; for λex: excitation wavelength; for Fold Increase (FAβ/F0): fluorescence emission intensity at λem, 10 μM compound and 10 μM Aβ40 aggregates
T1 construct: agglomerated Aβ40 peptide (10 μM, 35° C., agglomerated in PBS buffer for 3 days.)
T1 sequence (P05067 672-711 limits assumed): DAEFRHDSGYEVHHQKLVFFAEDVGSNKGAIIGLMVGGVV

[2] = biological target: T2, intracellular Aβ aggregates of a SHSY5Y neuroblastoma cell (Homo sapiens, UniProt P05067); test: Fluorescence imaging of intracellular Aβ aggregates in SHSY5Y cell extract; type: cell-based; details: for fluorescent staining of extract of Aβ42-added SHSY5Y cells: cell cultured with unlabelled Aβ42, sonicated with SDS, homogenate reacted with 10 μM probe for 10 minutes; for fluorescent staining of extract of SHSY5Y cells grown without Aβ: culture without Aβ42 (negative control tissue)
T2 construct: a cell having unlabelled Aβ42 added thereto was sonicated with SDS; host or cells: exogenous peptide added to the SHSY5Y neuroblastoma cell culture
T2 sequence (P05067 672-713 limits assumed): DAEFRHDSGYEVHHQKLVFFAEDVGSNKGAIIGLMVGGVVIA
Experimental: Fluorescence imaging of compound 14 was performed on intracellular Aβ aggregates of a SHSY5Y neuroblastoma cell. In order to measure intracellular uptake and aggregation of Aβ, 1 μM of Aβ42 (FITC-Aβ42) labelled with fluorescein isothiocyanate was added, and SHSY5Y cell was cultivated 3 days and imaged with fluorescence microscope. […] The conventional research reported that, after extracellular soluble Aβ is taken up, Aβ42 aggregates (>200 kDa) having a high molecular weight is formed. In order to determine whether the compound 14 is used as a fluorescence probe component for detecting intracellular Aβ aggregates, a cell having unlabelled Aβ42 added thereto was sonicated with SDS, and the homogenate was reacted with 10 μM of compound 14 for 10 minutes.

Aβ40 aggregates [3] = biological target: T1, Aβ40 aggregates; test: Apparent binding constant (Kd) by fluorescence titration with aggregated Aβ40 peptide; details: 10 μM aggregated Aβ40 peptide, PBS, N = 3; read-out: Kd (mean ± SD)
Experimental: Apparent binding constants (Kd) of the nine compounds were measured by using 10 μM aggregated Aβ40 peptide. Fluorescence intensity of respective probes of […], 0.5, 1, […], 5, and 10 μM dissolved in PBS and fluorescence intensity of a mixture with aggregates Aβ peptide were measured. […] Theoretically, a preferable fluorescence probe for Aβ aggregates should have high fluorescence reactivity and binding affinity.

[4] = tested on: Aβ aggregates of brain tissues of an AD mouse; test: Fluorescence staining of brain sections of transgenic AD mouse (APP/PS1); details: for staining of Aβ aggregates in brain section of transgenic AD mouse: 15-month aged APP/PS1 mouse brain section; for staining of brain tissue of control group mouse: control group mouse brain section
Experimental: In order to evaluate whether 2-styrylpyridazine-3(2H)-one-based compound 14 can stain beta amyloid aggregates of brain tissues of an AD mouse, compound 14 was tested in a brain section of an 15-month aged transgenic AD mouse (APP/PS 1) model.

SMILES | λem (Aβ40 aggregates [1]) | λex (Aβ40 aggregates [1]) | Fold Increase (FAβ/F0) (Aβ40 aggregates [1]) | fluorescent staining of extract of Aβ42-added SHSY5Y cells [2] | fluorescent staining of extract of SHSY5Y cells grown without Aβ [2] | Kd (Aβ40 aggregates [3]) | staining of Aβ aggregates in brain section of transgenic AD mouse [4] | staining of brain tissue of control group mouse [4]
O=c1c(Cl)c(Cl)cnn1/C=C/c1ccccc1 [Compound 1, trans-4,5-dichloro-2-styrylpyridazine-3(2H)-one] | 496 nm | 350 nm | 4.72 | – | – | – | – | –
O=c1c(Cl)c(Cl)cnn1/C=C/c1ccc(F)cc1 [Compound 2, (E)-4,5-dichloro-2-(4-fluorostyryl)pyridazine-3(2H)-one] | 492 nm | 350 nm | 5.93 | – | – | – | – | –
O=c1c(Cl)c(Cl)cnn1/C=C/c1ccc(Cl)cc1 [Compound 3, (E)-4,5-dichloro-2-(4-chlorostyryl)pyridazine-3(2H)-one] | 495 nm | 380 nm | 3.03 | – | – | – | – | –
O=c1c(Cl)c(Cl)cnn1/C=C/c1ccc(Br)cc1 [Compound 4, (E)-2-(4-bromostyryl)-4,5-dichloropyridazine-3(2H)-one] | 495 nm | 370 nm | 2.12 | – | – | – | – | –
O=c1c(Cl)c(Cl)cnn1/C=C/c1ccc(I)cc1 [Compound 5, (E)-4,5-dichloro-2-(4-Iodostyryl)pyridazine-3(2H)-one] | 498 nm | 380 nm | 5.26 | – | – | – | – | –
N#Cc1ccc(/C=C/n2ncc(Cl)c(Cl)c2=O)cc1 [Compound 6, (E)-2-(4-cyanostyryl)-4,5-dichloropyridazine-3(2H)-one] | 486 nm | 380 nm | 2.94 | – | – | – | – | –
COC(=O)c1ccc(/C=C/n2ncc(Cl)c(Cl)c2=O)cc1 [Compound 7, (E)-4,5-dichloro-2-(4-methoxycarbonylstyryl)pyridazine-3(2H)-one] | 488 nm | 370 nm | 2.07 | – | – | – | – | –
O=c1c(Cl)c(Cl)cnn1/C=C/c1ccccc1[N+](=O)[O-] [Compound 8, (E)-4,5-dichloro-2-(2-nitrostyryl)pyridazine-3(2H)-one] | 500 nm | 370 nm | 4.12 | – | – | – | – | –
O=c1c(Cl)c(Cl)cnn1/C=C/c1cccc([N+](=O)[O-])c1 [Compound 9, (E)-4,5-dichloro-2-(3-nitrostyryl)pyridazine-3(2H)-one] | 485 nm | 390 nm | 2.12 | – | – | – | – | –
O=c1c(Cl)c(Cl)cnn1/C=C/c1ccc([N+](=O)[O-])cc1 [Compound 10, (E)-4,5-dichloro-2-(4-nitrostyryl)pyridazine-3(2H)-one] | 515 nm | 390 nm | 2.24 | – | – | – | – | –
Cc1ccc(/C=C/n2ncc(Cl)c(Cl)c2=O)cc1 [Compound 11, (E)-4,5-dichloro-2-(4-methylstyryl)pyridazine-3(2H)-one] | 516 nm | 350 nm | 2.81 | – | – | – | – | –
O=c1c(Cl)c(Cl)cnn1/C=C/c1ccc(-c2ccccc2)cc1 [Compound 12, (E)-2-(2-(biphenyl-4-yl)vinyl)-4,5-dichloropyridazine-3(2H)-one] | 514 nm | 380 nm | 1.92 | – | – | – | – | –
O=c1c(Cl)c(Cl)cnn1/C=C/c1ccc(/C=C/c2ccccc2)cc1 [Compound 13, 4,5-dichloro-2-((E)-4-(E)-styrylstyryl)pyridazine-3(2H)-one] | 510 nm | 380 nm | 2.04 | – | – | – | – | –
CN(C)c1ccc(/C=C/n2ncc(Cl)c(Cl)c2=O)cc1 [Compound 14] | 636 nm | 430 nm | 40.84 | Fluorescence precipitate was obtained; also recorded: clearly stained | did not have fluorescent staining | 1.84 µM | clearly stained | not stained
Nc1ccc(/C=C/n2ncc(Cl)c(Cl)c2=O)cc1 [Compound 15, (E)-4,5-dichloro-2-(4-aminostyryl)pyridazine-3(2H)-one] | 598 nm | 400 nm | 12.15 | – | – | 2.95 ± 1.15 µM | – | –
COc1ccccc1/C=C/n1ncc(Cl)c(Cl)c1=O [Compound 16, (E)-4,5-dichloro-2-(2-methoxystyryl)pyridazine-3(2H)-one] | 492 nm | 380 nm | 8.24 | – | – | – | – | –
COc1cccc(/C=C/n2ncc(Cl)c(Cl)c2=O)c1 [Compound 17, (E)-4,5-dichloro-2-(3-methoxystyryl)pyridazine-3(2H)-one] | 492 nm | 350 nm | 11.13 | – | – | 3.48 ± 1.14 µM | – | –
COc1ccc(/C=C/n2ncc(Cl)c(Cl)c2=O)cc1 [Compound 18, (E)-4,5-dichloro-2-(4-methoxystyryl)pyridazine-3(2H)-one] | 532 nm | 400 nm | 19.81 | – | – | 2.57 ± 0.54 µM | – | –
COc1cccc(/C=C/n2ncc(Cl)c(Cl)c2=O)c1OC [Compound 19, (E)-4,5-dichloro-2-(2,3-dimethoxystyryl)pyridazine-3(2H)-one] | 504 nm | 350 nm | 15.35 | – | – | 8.52 ± 2.48 µM | – | –
COc1ccc(/C=C/n2ncc(Cl)c(Cl)c2=O)c(OC)c1 [Compound 20, (E)-4,5-dichloro-2-(2,4-dimethoxystyryl)pyridazine-3(2H)-one] | 554 nm | 400 nm | 11.52 | – | – | 5.03 ± 3.48 µM | – | –
COc1ccc(OC)c(/C=C/n2ncc(Cl)c(Cl)c2=O)c1 [Compound 21, (E)-4,5-dichloro-2-(2,5-dimethoxystyryl)pyridazine-3(2H)-one] | 512 nm | 370 nm | 3.42 | – | – | – | – | –
COc1cccc(OC)c1/C=C/n1ncc(Cl)c(Cl)c1=O [Compound 22, (E)-4,5-dichloro-2-(2,6-dimethoxystyryl)pyridazine-3(2H)-one] | 545 nm | 350 nm | 4.53 | – | – | – | – | –
COc1ccc(/C=C/n2ncc(Cl)c(Cl)c2=O)cc1OC [Compound 23, (E)-4,5-dichloro-2-(3,4-dimethoxystyryl)pyridazine-3(2H)-one] | 552 nm | 350 nm | 3.52 | – | – | – | – | –
COc1cc(/C=C/n2ncc(Cl)c(Cl)c2=O)cc(OC)c1 [Compound 24, (E)-4,5-dichloro-2-(3,5-dimethoxystyryl)pyridazine-3(2H)-one] | 492 nm | 350 nm | 5.37 | – | – | – | – | –
COc1ccc(/C=C/n2ncc(Cl)c(Cl)c2=O)c(OC)c1OC [Compound 25, (E)-4,5-dichloro-2-(2,3,4-trimethoxystyryl)pyridazine-3(2H)-one] | 536 nm | 390 nm | 26.81 | – | – | 4.24 ± 0.98 µM | – | –
COc1cc(OC)c(OC)cc1/C=C/n1ncc(Cl)c(Cl)c1=O [Compound 26, (E)-4,5-dichloro-2-(2,4,5-trimethoxystyryl)pyridazine-3(2H)-one] | 542 nm | 350 nm | 3.95 | – | – | – | – | –
COc1cc(OC)c(/C=C/n2ncc(Cl)c(Cl)c2=O)c(OC)c1 [Compound 27, (E)-4,5-dichloro-2-(2,4,6-trimethoxystyryl)pyridazine-3(2H)-one] | 560 nm | 430 nm | 11.72 | – | – | 17.5 ± 2.49 µM | – | –
COc1cc(/C=C/n2ncc(Cl)c(Cl)c2=O)cc(OC)c1OC [Compound 28] | 580 nm | 390 nm | 26.12 | – | – | 4.14 ± 1.94 µM | – | –
Cc1ccc2c(c1)sc(-c1ccc(N(C)C)cc1)[n+]2C.[Cl-] [thio-flavine T, reference compound] | – | – | – | labelled pattern was identical to a pattern observed by using thio-flavine T | did not have fluorescent staining | – | stained | not stained
